The source of these data is ChEMBL document CHEMBL2016512, “Calcitonin gene-related peptide (CGRP) receptor antagonists: novel aspartates and succinates” (Bioorg Med Chem Lett, 2012).

Series [1] deals with T1, Calcitonin gene-related peptide type 1 receptor (Homo sapiens, UniProt O60894+Q16602). The experiment in a line: Displacement of [125]CGRP from human CGRP receptor expressed in human SK-N-MC cell membrane after 2 hrs by scintillation counting. The class given is cell membranes.
Series [2] has as its target T1, Calcitonin gene-related peptide type 1 receptor. Description: Antagonist activity at human CGRP receptor expressed in human SK-N-MC cells assessed as inhibition of CGRP-stimulated cAMP production. Type of series: functional, cell-based. In general terms: cAMP levels reflect the balance of adenylyl cyclase and phosphodiesterase activity.
The subject of series [3] is Caco-2. The experiment in a line: Permeability across human Caco2 cells. Type of series: ADME, cell-based.
The nature of series [4]: Aqueous solubility of the compound. The class given is physicochemical. The following applies: buffer.
Series [5] in a line: Solubility of the compound. The class given is physicochemical.

T1 sequence (Q16602 whole entry, one chain of several): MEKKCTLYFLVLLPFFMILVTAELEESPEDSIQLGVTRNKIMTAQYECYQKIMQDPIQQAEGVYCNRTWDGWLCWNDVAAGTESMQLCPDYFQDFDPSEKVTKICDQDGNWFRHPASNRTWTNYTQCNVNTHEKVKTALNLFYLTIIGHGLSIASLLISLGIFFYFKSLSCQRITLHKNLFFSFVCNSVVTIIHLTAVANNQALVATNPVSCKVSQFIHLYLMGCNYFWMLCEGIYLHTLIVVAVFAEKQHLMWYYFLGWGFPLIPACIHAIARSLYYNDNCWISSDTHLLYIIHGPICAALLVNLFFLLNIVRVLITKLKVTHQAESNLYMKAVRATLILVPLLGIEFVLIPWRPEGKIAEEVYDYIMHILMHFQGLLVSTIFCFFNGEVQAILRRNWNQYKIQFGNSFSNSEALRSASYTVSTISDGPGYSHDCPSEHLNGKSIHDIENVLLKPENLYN

One may read the IC50 as the midpoint of a concentration-inhibition curve. With `Cc1cc(CC(CC(=O)N2CCC(N3Cc4cccc(F)c4NC3=O)CC2)C(=O)N2CCC(N3CCCCC3)CC2)cc2cn[nH]c12` (racemic), the IC50 in series [1] came to 0.18 nM; in series [2], 0.089 nM.

Regarding `Cc1cc(C[C@H](CC(=O)N2CCC(N3Cc4cccc(F)c4NC3=O)CC2)C(=O)N2CCC(N3CCCCC3)CC2)cc2cn[nH]c12`, the IC50 was 6.7 nM in series [1] and 4.6 nM in series [2]. In series [3], the permeability result is on record as “impermeable”. The solubility entry in series [4] is “Insoluble”.

On to `O=C(Nc1ccccc1F)N[C@@H](CC(=O)N1CCC(N2Cc3ccccc3NC2=O)CC1)C(=O)N1CCC(N2CCCCC2)CC1`, for which the IC50 in series [1] came to 45 nM. Further, the solubility result in series [5] is recorded as “Insoluble”. The permeability entry in series [3] is recorded as “impermeable”.

On to `Cc1cc(CC(CC(=O)N2CCC(N3Cc4ccccc4NC3=O)CC2)C(=O)N2CCC3(CC2)OCCO3)cc2cn[nH]c12` (racemic), for which the IC50 in series [1] came out at 3.2 nM; in series [2], 5.8 nM.

With `O=C(C[C@H](NCc1ccccn1)C(=O)N1CCC(N2CCCCC2)CC1)N1CCC(N2Cc3ccccc3NC2=O)CC1`, in series [1], the IC50 stood at 700 nM.

As for `O=C(CC(Cc1ccc2[nH]ncc2c1)C(=O)N1CCC2(CC1)OCCO2)N1CCC(N2Cc3ccccc3NC2=O)CC1` (racemic), the IC50 in series [1] is 87 nM; in series [2] it was 320 nM.

Take `O=C(Nc1ccccc1Cl)N[C@@H](CC(=O)N1CCC(N2Cc3ccccc3NC2=O)CC1)C(=O)N1CCC(N2CCCCC2)CC1`: in series [2], the IC50 came to 100 nM. For the same molecule, the solubility entry in series [5] is on record as “Insoluble”. The permeability entry in series [3] is “impermeable”.

Take `O=C(C[C@H](Nc1ccc2[nH]ncc2c1)C(=O)N1CCC(N2CCCCC2)CC1)N1CCC(N2Cc3ccccc3NC2=O)CC1`: the half-inhibitory concentration (IC50) was 170 nM in series [1] and 230 nM in series [2].

As for `Cc1cc(CC(CC(=O)N2CCC3(CC2)NC(=O)Nc2ccccc23)C(=O)N2CCC(N3CCCCC3)CC2)cc2cn[nH]c12` (racemic), the IC50 in series [1] was determined as 0.34 nM; in series [2], 0.35 nM.

Regarding `O=C(N[C@@H](CC(=O)N1CCC(N2Cc3ccccc3NC2=O)CC1)C(=O)N1CCC(N2CCCCC2)CC1)Oc1ccccc1`, the IC50 in series [1] is 280 nM.

Regarding `Cc1cc(CC(CC(=O)N2CCC(N3Cc4ccccc4NC3=O)CC2)C(=O)N2CCC(C)CC2)cc2cn[nH]c12` (racemic), the figures for the IC50 in series [1] and in series [2] were 2.7 nM and 2 nM, respectively.

Turning to `Cc1cc(CC(CC(=O)N2CCC(N3Cc4ccccc4NC3=O)CC2)C(=O)N2CCCCC2)cc2cn[nH]c12` (racemic), the half-inhibitory concentration (IC50) in series [1] worked out at 3.7 nM; in series [2] it was 6.9 nM.

`Cc1cc(CC(CC(=O)N2CCC(n3cc(-c4ccccc4)[nH]c3=O)CC2)C(=O)N2CCC(N3CCCCC3)CC2)cc2cn[nH]c12` (racemic): the figures for the IC50 in series [1] and in series [2] were 0.15 nM and 0.049 nM, respectively.

In the case of `O=C(Nc1ccc(Cl)cc1Cl)N[C@@H](CC(=O)N1CCC(N2Cc3ccccc3NC2=O)CC1)C(=O)N1CCC(N2CCCCC2)CC1`, the half-maximal inhibitory concentration (IC50) in series [1] came out at 36 nM. The solubility result in series [5] was “Insoluble”. Also, in series [3], the permeability entry was “impermeable”.

With `Cc1cc(C[C@H](CC(=O)N2CCC(N3Cc4ccccc4NC3=O)CC2)C(=O)N2CCC(N3CCCCC3)CC2)cc2cn[nH]c12`, the half-maximal inhibitory concentration (IC50) in series [1] and in series [2] was 11 nM throughout. In addition, the permeability entry in series [3] was “impermeable”. Also, the solubility result in series [4] is “Insoluble”.

Take `O=C1Nc2ccccc2C2(CCN(C(=O)CC(Cc3ccc4[nH]ncc4c3)C(=O)N3CCC4(CC3)OCCO4)CC2)O1` (racemic): the IC50 in series [1] was 460 nM.

`O=C(C[C@H](NCc1ccc2[nH]ccc2c1)C(=O)N1CCC(N2CCCCC2)CC1)N1CCC(N2Cc3ccccc3NC2=O)CC1`: the IC50 in series [1] was 380 nM.

In the case of `Cc1cc(CC(CC(=O)N2CCC(c3cc4ccccc4[nH]c3=O)CC2)C(=O)N2CCC(N3CCCCC3)CC2)cc2cn[nH]c12` (racemic), the IC50 in series [1] is 0.3 nM; in series [2] it was 0.12 nM.

Take `O=C1Nc2ccccc2C2(CCN(C(=O)CC(Cc3ccc4[nH]ncc4c3)C(=O)N3CCC(N4CCCCC4)CC3)CC2)O1` (racemic): the IC50 in series [1] was found to be 15 nM; in series [2], 53 nM.

As for `Cc1cc(C[C@@H](CC(=O)N2CCC(N3Cc4ccccc4NC3=O)CC2)C(=O)N2CCC(N3CCCCC3)CC2)cc2cn[nH]c12`, the IC50 amounted to 0.06 nM in series [1] and 0.019 nM in series [2]. For the same molecule, in series [3], the permeability entry was “impermeable”. In addition, the solubility result in series [4] was “Insoluble”.

As to `O=C(C[C@H](Nc1ccc2[nH]ccc2c1)C(=O)N1CCC(N2CCCCC2)CC1)N1CCC(N2Cc3ccccc3NC2=O)CC1`, the figures for the IC50 in series [1] and in series [2] were 180 nM and 59 nM, respectively.

For `O=C(C[C@H](Nc1ccc(Br)c2ccccc12)C(=O)N1CCC(N2CCCCC2)CC1)N1CCC(N2Cc3ccccc3NC2=O)CC1`, the IC50 in series [1] was found to be 120 nM.

With `O=C(C[C@H](Nc1cccc2ncccc12)C(=O)N1CCC(N2CCCCC2)CC1)N1CCC(N2Cc3ccccc3NC2=O)CC1`, the IC50 in series [1] was determined as 890 nM.

Regarding `Cc1cc(CC(CC(=O)N2CCC(N3Cc4ccccc4NC3=O)CC2)C(=O)N2CCC(N3CCCCC3)CC2)cc2cn[nH]c12` (racemic), the IC50 in series [1] came out at 0.074 nM; in series [2], 0.068 nM.

Regarding `O=C(N[C@@H](CC(=O)N1CCC(N2Cc3ccccc3NC2=O)CC1)C(=O)N1CCC(N2CCCCC2)CC1)c1ccc(F)c(F)c1`, the IC50 in series [1] is 430 nM.

Turning to `O=C(C[C@H](Nc1cc(Cl)ncn1)C(=O)N1CCC(N2CCCCC2)CC1)N1CCC(N2Cc3ccccc3NC2=O)CC1`, the results for the IC50 in series [1] and in series [2] were 98 nM and 46 nM, respectively.

With `Cc1cc(CC(CC(=O)N2CCC3(CC2)OC(=O)Nc2ccccc23)C(=O)N2CCCCC2)cc2cn[nH]c12` (racemic), the figures for the IC50 in series [1] and in series [2] were 19 nM and 34 nM, respectively.

On to `O=C(Nc1cccc(Cl)c1Cl)N[C@@H](CC(=O)N1CCC(N2Cc3ccccc3NC2=O)CC1)C(=O)N1CCC(N2CCCCC2)CC1`, for which the IC50 in series [1] amounted to 97 nM. In series [5], the solubility result is given as “Insoluble”. In addition, the permeability entry in series [3] is on record as “impermeable”.

On to `Cc1nc(N[C@@H](CC(=O)N2CCC(N3Cc4ccccc4NC3=O)CC2)C(=O)N2CCC(N3CCCCC3)CC2)nc(N)c1[N+](=O)[O-]`, for which the IC50 in series [1] turned out to be 80 nM.

For `O=C(C[C@H](NCc1ccc2[nH]ncc2c1)C(=O)N1CCC(N2CCCCC2)CC1)N1CCC(N2Cc3ccccc3NC2=O)CC1`, the IC50 in series [1] is 130 nM; in series [2] it was 300 nM.

As for `O=C(C[C@H](Nc1cccc2ccccc12)C(=O)N1CCC(N2CCCCC2)CC1)N1CCC(N2Cc3ccccc3NC2=O)CC1`, in series [1], the IC50 was found to be 220 nM.

For the molecule `O=C(C[C@H](Nc1nc(Cl)nc2[nH]ncc12)C(=O)N1CCC(N2CCCCC2)CC1)N1CCC(N2Cc3ccccc3NC2=O)CC1`, the figures for the IC50 in series [1] and in series [2] were 250 nM and 99 nM, respectively.

For the molecule `Cc1cc(CC(CC(=O)N2CCC3(CC2)OC(=O)Nc2ccccc23)C(=O)N2CCC3(CC2)OCCO3)cc2cn[nH]c12` (racemic), the IC50 in series [1] was determined as 5.9 nM; in series [2], 8.8 nM.

As for `Cc1cc(CC(CC(=O)N2CCC3(CC2)OC(=O)Nc2ccccc23)C(=O)N2CCC(N3CCCCC3)CC2)cc2cn[nH]c12` (racemic), the half-maximal inhibitory concentration (IC50) in series [1] amounted to 0.33 nM; in series [2], 0.7 nM.

On to `O=C(C[C@H](Nc1ccncn1)C(=O)N1CCC(N2CCCCC2)CC1)N1CCC(N2Cc3ccccc3NC2=O)CC1`, for which the half-maximal inhibitory concentration (IC50) in series [1] amounted to 1400 nM.

In the case of `O=C(C[C@H](Nc1ccc(Cl)cc1[N+](=O)[O-])C(=O)N1CCC(N2CCCCC2)CC1)N1CCC(N2Cc3ccccc3NC2=O)CC1`, the IC50 in series [1] and in series [2] was 32 nM in each case.

For the molecule `Cc1cc(C[C@@H](CC(=O)N2CCC(N3Cc4cccc(F)c4NC3=O)CC2)C(=O)N2CCC(N3CCCCC3)CC2)cc2cn[nH]c12`, the concentration for half-maximal inhibition (IC50) is 0.2 nM in series [1] and 0.082 nM in series [2]. For the same molecule, the permeability result in series [3] is recorded as “impermeable”. The solubility entry in series [4] is “Insoluble”.

With `Cc1nc(N[C@@H](CC(=O)N2CCC(N3Cc4ccccc4NC3=O)CC2)C(=O)N2CCC(N3CCCCC3)CC2)nc2nn[nH]c12`, the IC50 came to 73 nM in series [1] and 120 nM in series [2].

Consider `O=C(C[C@H](NC1CCC(O)CC1)C(=O)N1CCC(N2CCCCC2)CC1)N1CCC(N2Cc3ccccc3NC2=O)CC1` (stereo not given in full), for which the IC50 in series [1] turned out to be 4500 nM.

On to `CC(C)(C)OC(=O)N[C@@H](CC(=O)N1CCC(N2Cc3ccccc3NC2=O)CC1)C(=O)N1CCC(N2CCCCC2)CC1`, for which, in series [1], the IC50 is 590 nM.
